Results as given in patent publication US10730880B2, “4,6-substituted-pyrazolo[1,5-a]pyrazines as Janus kinase inhibitors” (Array BioPharma Inc., priority 2014, dated 2020).
Where two headings read alike, the source gives them in different places.

Legend:
Assay type in all cases: biochemical
[1] = target: JAK2 (Homo sapiens (Human), UniProt O60674); test: JAK2 Inhibition Assay (Omnia kinase fluorescence peptide substrate assay)
Excerpt: (§1) The assays described in Examples A, B, C and D for the determination of Tyk2, JAK1, JAK2 and JAK3 kinase activity, respectively, utilized the Omnia® Kinase fluorescence peptide substrate-based technology (Invitrogen). The specific components of the assay mixture are described in Examples A, B, C and D. In these assays, Mg^2+ is chelated upon phosphorylation of the Omnia peptide by the kinase to form a bridge between the chelation-enhanced fluorophore Sox and the phosphate, resulting in an increase in fluorescence emission at 485 nm when excited at […]. The reactions were therefore read at excitation 360 nm and emission was measured at 485 nm every 50 seconds for 45 minutes using a PerkinElmer EnVision Multilabel Plate Reader.
(§2) The final buffer conditions for Tyk2, JAK1, JAK2, and JAK3 assays were as follows: 25 mM HEPES, pH 7.4, 10 mM MgCl2, 0.01% Triton X-100 and 1 mM DTT.
(§3) Two-μL aliquots of these were transferred to a fresh plate for a ten-fold intermediate dilution with assay buffer. Five-μL aliquots of the diluted compounds were then transferred to 20-μL of assay mixtures described in Examples A, B, C and D for a final concentration of DMSO of 2%. […] For each plate, percent of control (POC) values were calculated for each well according to the following equation:
(§4) where Xmax=Average Uninhibited Controls • Xmin=Average Background IC50's were estimated from the POC's using a standard 4-parameter logistic model:
(§5) where A=Minimum Y (Bottom Asymptote) • B=Maximum Y (Top Asymptote) • C=EC50 • D=Slope Factor • X=Compound Concentration (nM) • Y=POC
(§6) The IC50 is defined as the concentration of inhibitor at which the POC equals 50 for the fitted curve.
(§7) Compounds of Formula I were screened for their ability to inhibit JAK2 using the general enzyme inhibition assay method, in which the assay mixture contained 1 mM ATP, 10 μM Omnia® Y7 peptide (Catalog # IVGN KNZ3071C, Invitrogen Corporation, Carlsbad, Calif.) and 4 nM JAK2 in a total volume of 25 μL. JAK2 was purchased from Invitrogen Corporation, Carlsbad, Calif. (catalog # IVGN PV4288).

[2] = target: Human Tyk2 kinase domain (Homo sapiens (Human), UniProt P29597); test: Tyk2 Inhibition Assay (Omnia kinase fluorescence peptide substrate assay)
Excerpt: as §1, §2, §3, §4, §5, §6
Compounds of Formula I were screened for their ability to inhibit Tyk2 using the general enzyme inhibition assay method, in which the assay mixture contained 1 mM ATP, 8 μM Omnia® Y12 peptide (Catalog # IVGN KPZ3121C; Invitrogen Corporation, Carlsbad, Calif.) and 1 nM Tyk2 in a total volume of 25 μL. Human Tyk2 kinase domain, comprising amino acids 886 to 1187 with 10 additional histidine residues (histidine tag) on the carboxy terminus, was expressed and purified from bacculovirus in-house at Array BioPharma Inc. (Boulder, Colo.). The histidine tag was cleaved after purification using standard conditions.

[3] = target: JAK3 (Homo sapiens (Human), UniProt P52333); test: JAK3 Inhibition Assay (Omnia kinase fluorescence peptide substrate assay); settings: read-out: JAK3 Enzyme IC50 1 mM ATP, averaged IC50 ranges
Excerpt: as §1, §2
as §3, with “equation: […]” for “equation:”

[4] = target: JAK1 (Homo sapiens (Human), UniProt P23458); test: JAK1 Inhibition Assay (Omnia kinase fluorescence peptide substrate assay)
Excerpt: as §1, §2, §3, §4, §5, §6
as §7, with “JAK1” for “JAK2”, “8” for “10”, “Y12” for “Y7”, “KPZ3121C;” for “KNZ3071C,”, “12.5” for “4”, “PV4775).” for “PV4288).”

[5] = read-out: JAK2 Enzyme IC50 1 mM ATP, 1 mM ATP, averaged IC50 ranges
[6] = read-out: TYK2 Enzyme IC50 1 mM ATP, 1 mM ATP, averaged IC50 ranges
[7] = JAK1 Enzyme IC50 1 mM ATP, averaged IC50 ranges

Sequence of Human Tyk2 kinase domain (P29597 886-1187): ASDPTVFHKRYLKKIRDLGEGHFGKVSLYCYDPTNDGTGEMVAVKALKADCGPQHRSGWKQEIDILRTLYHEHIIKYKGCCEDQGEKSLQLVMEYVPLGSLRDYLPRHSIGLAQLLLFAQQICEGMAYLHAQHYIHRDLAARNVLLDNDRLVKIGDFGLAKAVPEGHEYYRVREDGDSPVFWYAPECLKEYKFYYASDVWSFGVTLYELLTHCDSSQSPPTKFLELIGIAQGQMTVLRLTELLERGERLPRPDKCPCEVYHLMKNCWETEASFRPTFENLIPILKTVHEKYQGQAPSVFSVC
Sequence of JAK1 (P23458 whole entry): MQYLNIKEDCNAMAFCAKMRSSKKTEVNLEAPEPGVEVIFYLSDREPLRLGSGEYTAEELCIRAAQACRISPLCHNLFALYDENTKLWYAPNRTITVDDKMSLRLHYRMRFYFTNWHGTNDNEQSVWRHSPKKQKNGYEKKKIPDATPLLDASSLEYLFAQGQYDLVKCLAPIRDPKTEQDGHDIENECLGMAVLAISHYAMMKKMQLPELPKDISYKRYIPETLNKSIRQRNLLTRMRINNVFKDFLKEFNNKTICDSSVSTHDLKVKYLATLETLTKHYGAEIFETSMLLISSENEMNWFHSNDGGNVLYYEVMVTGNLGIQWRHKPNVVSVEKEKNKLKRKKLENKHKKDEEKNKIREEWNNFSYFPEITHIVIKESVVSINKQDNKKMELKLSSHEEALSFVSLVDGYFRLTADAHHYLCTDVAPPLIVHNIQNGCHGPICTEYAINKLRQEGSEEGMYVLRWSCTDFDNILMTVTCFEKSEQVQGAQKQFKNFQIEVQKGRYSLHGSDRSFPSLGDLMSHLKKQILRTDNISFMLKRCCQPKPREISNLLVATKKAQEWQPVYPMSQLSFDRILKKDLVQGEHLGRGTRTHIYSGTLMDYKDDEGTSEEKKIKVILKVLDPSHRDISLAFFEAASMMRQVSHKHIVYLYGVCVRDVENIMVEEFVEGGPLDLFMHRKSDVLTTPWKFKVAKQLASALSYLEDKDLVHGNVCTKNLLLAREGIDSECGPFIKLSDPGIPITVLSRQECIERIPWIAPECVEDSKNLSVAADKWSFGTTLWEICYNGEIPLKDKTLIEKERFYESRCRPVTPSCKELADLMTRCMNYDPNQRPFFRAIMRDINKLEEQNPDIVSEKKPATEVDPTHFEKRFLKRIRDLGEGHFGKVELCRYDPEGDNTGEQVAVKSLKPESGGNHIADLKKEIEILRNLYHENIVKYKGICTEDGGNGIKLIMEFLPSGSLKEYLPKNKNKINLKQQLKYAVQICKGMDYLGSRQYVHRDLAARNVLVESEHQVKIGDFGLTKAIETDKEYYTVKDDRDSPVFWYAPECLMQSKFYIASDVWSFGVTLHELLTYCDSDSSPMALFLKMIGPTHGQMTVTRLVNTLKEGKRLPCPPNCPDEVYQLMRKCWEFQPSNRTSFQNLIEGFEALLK
Sequence of JAK2 (O60674 whole entry): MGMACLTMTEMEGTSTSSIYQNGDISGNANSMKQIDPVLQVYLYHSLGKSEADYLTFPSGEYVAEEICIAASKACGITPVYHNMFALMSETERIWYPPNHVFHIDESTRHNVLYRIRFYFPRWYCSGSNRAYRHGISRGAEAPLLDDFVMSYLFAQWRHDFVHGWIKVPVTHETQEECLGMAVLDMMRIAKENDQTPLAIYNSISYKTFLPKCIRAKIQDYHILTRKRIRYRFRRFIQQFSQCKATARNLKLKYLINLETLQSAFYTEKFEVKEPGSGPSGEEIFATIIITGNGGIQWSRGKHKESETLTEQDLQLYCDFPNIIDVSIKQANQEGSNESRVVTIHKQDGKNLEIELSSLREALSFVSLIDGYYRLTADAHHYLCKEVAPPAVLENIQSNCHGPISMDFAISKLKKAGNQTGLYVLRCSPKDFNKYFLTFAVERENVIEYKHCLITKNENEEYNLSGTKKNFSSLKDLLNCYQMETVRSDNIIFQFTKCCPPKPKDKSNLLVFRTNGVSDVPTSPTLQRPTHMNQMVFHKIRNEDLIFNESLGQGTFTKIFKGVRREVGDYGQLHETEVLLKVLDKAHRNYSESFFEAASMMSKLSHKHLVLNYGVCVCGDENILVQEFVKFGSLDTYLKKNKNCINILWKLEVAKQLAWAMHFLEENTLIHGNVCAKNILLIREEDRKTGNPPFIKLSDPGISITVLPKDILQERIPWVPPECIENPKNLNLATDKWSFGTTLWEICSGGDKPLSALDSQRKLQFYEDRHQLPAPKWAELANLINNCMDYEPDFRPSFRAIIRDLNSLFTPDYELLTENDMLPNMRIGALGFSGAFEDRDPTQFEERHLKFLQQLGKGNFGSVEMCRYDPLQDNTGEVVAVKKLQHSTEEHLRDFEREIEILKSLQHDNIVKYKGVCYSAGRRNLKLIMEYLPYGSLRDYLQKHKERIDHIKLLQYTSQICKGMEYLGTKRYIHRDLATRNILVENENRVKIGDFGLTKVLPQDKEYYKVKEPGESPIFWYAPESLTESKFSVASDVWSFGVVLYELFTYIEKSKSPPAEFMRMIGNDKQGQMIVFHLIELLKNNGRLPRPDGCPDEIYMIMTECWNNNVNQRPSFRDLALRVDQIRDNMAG
Sequence of JAK3 (P52333 whole entry): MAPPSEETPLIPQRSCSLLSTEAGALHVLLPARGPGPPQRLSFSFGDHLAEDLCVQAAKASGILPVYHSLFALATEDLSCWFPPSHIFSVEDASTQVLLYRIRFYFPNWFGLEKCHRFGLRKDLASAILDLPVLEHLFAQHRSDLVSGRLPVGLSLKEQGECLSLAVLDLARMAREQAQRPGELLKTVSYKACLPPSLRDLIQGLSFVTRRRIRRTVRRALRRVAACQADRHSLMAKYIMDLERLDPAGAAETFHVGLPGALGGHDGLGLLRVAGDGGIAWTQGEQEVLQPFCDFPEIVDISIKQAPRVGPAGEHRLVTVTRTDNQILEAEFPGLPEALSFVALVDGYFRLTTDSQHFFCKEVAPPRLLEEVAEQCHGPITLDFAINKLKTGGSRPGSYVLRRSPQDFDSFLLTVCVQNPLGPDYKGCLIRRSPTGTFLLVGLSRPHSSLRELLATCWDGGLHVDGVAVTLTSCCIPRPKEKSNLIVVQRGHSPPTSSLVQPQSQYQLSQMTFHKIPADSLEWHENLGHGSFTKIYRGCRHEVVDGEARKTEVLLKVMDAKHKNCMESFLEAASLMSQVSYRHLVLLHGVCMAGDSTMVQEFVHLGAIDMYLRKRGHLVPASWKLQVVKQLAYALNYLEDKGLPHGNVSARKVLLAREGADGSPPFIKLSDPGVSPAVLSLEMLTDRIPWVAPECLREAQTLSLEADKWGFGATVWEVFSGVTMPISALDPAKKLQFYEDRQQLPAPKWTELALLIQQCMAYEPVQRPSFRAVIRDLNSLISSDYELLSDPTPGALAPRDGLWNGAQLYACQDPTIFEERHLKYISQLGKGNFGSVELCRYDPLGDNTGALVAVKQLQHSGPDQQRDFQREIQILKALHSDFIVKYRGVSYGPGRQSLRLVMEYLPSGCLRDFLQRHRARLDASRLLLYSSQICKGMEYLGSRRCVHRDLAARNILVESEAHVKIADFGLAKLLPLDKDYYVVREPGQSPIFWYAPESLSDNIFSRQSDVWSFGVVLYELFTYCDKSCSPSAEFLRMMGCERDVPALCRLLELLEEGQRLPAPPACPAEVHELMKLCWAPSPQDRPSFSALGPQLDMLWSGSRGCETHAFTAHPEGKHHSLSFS

Q: With `CCC(CC)n1cc(-c2nc(-c3cnn(C4CCN(C(C)=O)CC4)c3)cn3nccc23)cn1` [Example 31, 1-(4-(4-(4-(1-(pentan-3-yl)-1H-pyrazol-4-yl)pyrazolo[1,5-a]pyrazin-6-yl)-1H-pyrazol-1-yl)piperidin-1-yl)ethanone] as the compound, how does the IC50 [1, 5] read?
A: < 0.01 µM

Q: Which IC50 [1, 5] does the source give for `CC1(C)CCC[C@@H]1n1cc(-c2nc(-c3cnn(C[C@@H](O)CO)c3)cn3nccc23)cn1` [Example 95, (R)-3-(4-(4-(1-((S)-2,2-dimethylcyclopentyl)-1H-pyrazol-4-yl)pyrazolo[1,5-a]pyrazin-6-yl)-1H-pyrazol-1-yl)propane-1,2-diol] here?
A: 1 to 10 µM

Q: With `CC[C@@H](C)n1cc(-c2nc(-c3cnn(C(CO)CO)c3)cn3nccc23)cn1` [Example 85, (R)-2-(4-(4-(1-(sec-butyl)-1H-pyrazol-4-yl)pyrazolo[1,5-a]pyrazin-6-yl)-1H-pyrazol-1-yl)propane-1,3-diol] as the compound, how does the IC50 [1, 5] read?
A: < 0.01 µM

Q: How did the IC50 [2, 6] turn out when `CCC(CC)n1cc(-c2nc(-c3cnn(C4CCN(S(C)(=O)=O)CC4)c3)cn3nccc23)cn1` [Example 32, 6-(1-(1-(methylsulfonyl)piperidin-4-yl)-1H-pyrazol-4-yl)-4-(1-(pentan-3-yL)-1H-pyrazol-4-yl)pyrazolo[1,5-a]pyrazine] was run?
A: < 0.01 µM

Q: And the IC50 [1, 5]?
A: < 0.01 µM

Q: `CCC(CC)n1cc(-c2nc(-c3cnn([C@H]4CC[C@H](O)CC4)c3)cn3nccc23)cn1` [Example 118, trans-4-(4-(4-(1-(pentan-3-yl)-1H-pyrazol-4-yl)pyrazolo[1,5-a]pyrazin-6-yl)-1H-pyrazol-1-yl)cyclohexanol] was tested. Which IC50 [3] did it give?
A: 1 to 10 µM

Q: For `CCC[C@H](C)n1cc(-c2nc(-c3cnn(C[C@H](O)CO)c3)cn3nccc23)cn1` [Example 86, (S)-3-(4-(4-(1-((S)-pentan-2-yl)-1H-pyrazol-4-yl)pyrazolo[1,5-a]pyrazin-6-yl)-1H-pyrazol-1-yl)propane-1,2-diol], which IC50 [2, 6] is on record?
A: < 0.01 µM

Q: For `CCC(CC)n1cc(-c2nc(-c3cnn(C4CN(C(=O)C5(O)CC5)C4)c3)cn3nccc23)cn1` [Example 177, (1-hydroxycyclopropyl)(3-(4-(4-(1-(pentan-3-yl)-1H-pyrazol-4-yl)pyrazolo[1,5-a]pyrazin-6-yl)-1H-pyrazol-1-yl)azetidin-1-yl)methanone], which IC50 [2, 6] is on record?
A: < 0.01 µM

Q: Which IC50 [1, 5] does the source give for `CC[C@H](C1CC1)n1cc(-c2nc(-c3cnn(C[C@@H](O)CO)c3)cn3nccc23)cn1` (single isomer, unassigned) [Example 213] here?
A: 0.01 to 0.1 µM

Q: Which IC50 [2, 6] does the source give for `CCC(CC)n1cc(-c2nc(-c3cnn(C4CCN(C(=O)COC)CC4)c3)cn3nccc23)cn1` [Example 33, 2-methoxy-1-(4-(4-(4-(1-(pentan-3-yl)-1H-pyrazol-4-yl)pyrazolo[1,5-a]pyrazin-6-yl)-1H-pyrazol-1-yl)piperidin-1-yl)ethanone] here?
A: < 0.01 µM

Q: What about the IC50 [1, 5] of the same compound?
A: < 0.01 µM

Q: `CCC(CC)n1cc(-c2nc(-c3cnn(C4CCN(C(=O)CN)CC4)c3)cn3nccc23)cn1` [Example 36, 2-amino-1-(4-(4-(4-(1-(pentan-3-yl)-1H-pyrazol-4-yl)pyrazolo[1,5-a]pyrazin-6-yl)-1H-pyrazol-1-yl)piperidin-1-yl)ethanone] was tested. Which IC50 [2, 6] did it give?
A: < 0.01 µM

Q: And the IC50 [1, 5]?
A: < 0.01 µM

Q: For `CCC(CC)n1cc(-c2nc(-c3cnn(C4CCN(C(=O)NC)CC4)c3)cn3nccc23)cn1` [Example 34, N-methyl-4-(4-(4-(1-(pentan-3-yl)-1H-pyrazol-4-yl)pyrazolo[1,5-a]pyrazin-6-yl)-1H-pyrazol-1-yl)piperidine-1-carboxamide], which IC50 [1, 5] is on record?
A: < 0.01 µM

Q: How did the IC50 [2, 6] turn out when `CCC(CC)n1cc(-c2nc(-c3cnn(C4CN(C(=O)C(C)(C)O)C4)c3)cn3nccc23)cn1` [Example 176, 2-hydroxy-2-methyl-1-(3-(4-(4-(1-(pentan-3-yl)-1H-pyrazol-4-yl)pyrazolo[1,5-a]pyrazin-6-yl)-1H-pyrazol-1-yl)azetidin-1-yl)propan-1-one] was run?
A: < 0.01 µM

Q: With `CCC(CC)n1cc(-c2nc(-c3cnn([C@@H]4C[C@@H](O)[C@@H](O)C4)c3)cn3nccc23)cn1` [Example 132, (1R,2S,4s)-4-(4-(4-(1-(pentan-3-yl)-1H-pyrazol-4-yl)pyrazolo[1,5-a]pyrazin-6-yl)-1H-pyrazol-1-yl)cyclopentane-1,2-diol] as the compound, how does the IC50 ([4]; read-out: JAK1 Enzyme IC50 1 mM ATP, averaged IC50 ranges) read?
A: 0.1 to 1 µM

Q: And the IC50 [1, 5]?
A: 0.01 to 0.1 µM

Q: How did the IC50 [1, 5] turn out when `CCC(CC)n1cc(-c2nc(-c3cnn(C4CS(=O)(=O)C4)c3)cn3nccc23)cn1` [Example 13, 3-(4-(4-(1-(pentan-3-yl)-1H-pyrazol-4-yl)pyrazolo[1,5-a]pyrazin-6-yl)-1H-pyrazol-1-yl)thietane 1,1-dioxide] was run?
A: < 0.01 µM

Q: How did the IC50 [4, 7] turn out when `CCC(CC)n1cc(-c2nc(-c3cnn(C4CC(C(N)=O)C4)c3)cn3nccc23)cn1` (centres unmarked) [Example 168, (1s,3s)-3-(4-(4-(1-(pentan-3-yl)-1H-pyrazol-4-yl)pyrazolo[1,5-a]pyrazin-6-yl)-1H-pyrazol-1-yl)cyclobutanecarboxamide] was run?
A: 1 to 10 µM

Q: For `CCC(CC)n1cc(-c2nc(-c3cnn([C@H]4CC[C@@H](O)CC4)c3)cn3nccc23)cn1` [Example 121, cis-4-(4-(4-(1-(pentan-3-yl)-1H-pyrazol-4-yl)pyrazolo[1,5-a]pyrazin-6-yl)-1H-pyrazol-1-yl)cyclohexanol], which IC50 [3] is on record?
A: 1 to 10 µM

Q: How did the IC50 [2] turn out when `CCC(CC)n1cc(-c2nc(-c3cnn([C@@H]4CCC[C@@H]4O)c3)cn3nccc23)cn1` [Example 189, (1S,2R)-2-(4-(4-(1-(pentan-3-yl)-1H-pyrazol-4-yl)pyrazolo[1,5-a]pyrazin-6-yl)-1H-pyrazol-1-yl)cyclopentanol] was run?
A: 0.01 to 0.1 µM

Q: And the IC50 [4, 7]?
A: 1 to 10 µM

Q: And the IC50 [1]?
A: 0.01 to 0.1 µM
